Laboratory results as given in patent publication US20240308976A1, “COMPOUNDS THAT MEDIATE PROTEIN DEGRADATION AND USES THEREOF” (Monte Rosa Therapeutics, Inc., priority 2021, published 2024).

Assays:
[1] = molecular target: CRBN-DDB1 (Homo sapiens, UniProt Q96SW2); test: Compound binding to CRBN by HTRF assay; conditions: CRBN-DDB1 2.5 nM, Cy5-Thalidomide 100 nM, 30 min at ambient temperature; read-out: HTRF Class (Cereblon binding, HTRF IC50)
Procedure, shortened: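 Cy5-thalidomide (100 nM) displacement from His-tagged CRBN-DDB1 (2.5 nM) read by terbium-cryptate HTRF (665/620 nm), in 20 mM HEPES, 20 mM NaCl, 0.2 mM TCEP, 0.2 mM EDTA, 0.005% Tween20. Compounds tested as 10-point 1:3 series, 30 min at ambient temperature. Signal normalised to DMSO and lenalidomide controls; IC50 fitted, Ki by Cheng-Prusoff.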

[2] = molecular target: T1, GSPT1 (Homo sapiens, UniProt P15170+Q96SW2); test: Immunofluorescence assay for activity to degrade GSPT1 in CAL-51 cells; format: cell-based; conditions: 6 h treatment, read-out: IF Class (GSPT1 degradation, DC50)
T1 construct: CAL-51 cells were purchased from DSMZ (cat. Number ACC302); host or cells: CAL-51
Procedure, shortened: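 CAL-51 cells treated 6 h with compound (30 μM to 0.1 nM), fixed, immunostained for GSPT1 with DAPI and phalloidin counterstains, imaged by high-content microscopy. Mean per-cell GSPT1 intensity normalized to controls; DC50 by non-linear regression.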

CRBN-DDB1, sequence (Q96SW2 whole entry): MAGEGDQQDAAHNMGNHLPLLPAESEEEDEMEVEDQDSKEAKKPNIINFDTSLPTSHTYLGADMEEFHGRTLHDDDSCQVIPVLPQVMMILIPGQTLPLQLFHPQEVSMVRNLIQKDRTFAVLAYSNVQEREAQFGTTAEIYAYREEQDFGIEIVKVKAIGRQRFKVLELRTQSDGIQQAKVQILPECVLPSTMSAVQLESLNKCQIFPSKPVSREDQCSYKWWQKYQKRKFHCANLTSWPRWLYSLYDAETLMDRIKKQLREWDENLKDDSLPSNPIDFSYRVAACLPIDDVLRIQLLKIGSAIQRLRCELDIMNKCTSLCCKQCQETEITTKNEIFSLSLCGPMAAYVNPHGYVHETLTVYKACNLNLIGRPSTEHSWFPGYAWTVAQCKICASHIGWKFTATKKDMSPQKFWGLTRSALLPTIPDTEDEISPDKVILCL
CRBN-DDB1, sequence (Q16531 whole entry partner): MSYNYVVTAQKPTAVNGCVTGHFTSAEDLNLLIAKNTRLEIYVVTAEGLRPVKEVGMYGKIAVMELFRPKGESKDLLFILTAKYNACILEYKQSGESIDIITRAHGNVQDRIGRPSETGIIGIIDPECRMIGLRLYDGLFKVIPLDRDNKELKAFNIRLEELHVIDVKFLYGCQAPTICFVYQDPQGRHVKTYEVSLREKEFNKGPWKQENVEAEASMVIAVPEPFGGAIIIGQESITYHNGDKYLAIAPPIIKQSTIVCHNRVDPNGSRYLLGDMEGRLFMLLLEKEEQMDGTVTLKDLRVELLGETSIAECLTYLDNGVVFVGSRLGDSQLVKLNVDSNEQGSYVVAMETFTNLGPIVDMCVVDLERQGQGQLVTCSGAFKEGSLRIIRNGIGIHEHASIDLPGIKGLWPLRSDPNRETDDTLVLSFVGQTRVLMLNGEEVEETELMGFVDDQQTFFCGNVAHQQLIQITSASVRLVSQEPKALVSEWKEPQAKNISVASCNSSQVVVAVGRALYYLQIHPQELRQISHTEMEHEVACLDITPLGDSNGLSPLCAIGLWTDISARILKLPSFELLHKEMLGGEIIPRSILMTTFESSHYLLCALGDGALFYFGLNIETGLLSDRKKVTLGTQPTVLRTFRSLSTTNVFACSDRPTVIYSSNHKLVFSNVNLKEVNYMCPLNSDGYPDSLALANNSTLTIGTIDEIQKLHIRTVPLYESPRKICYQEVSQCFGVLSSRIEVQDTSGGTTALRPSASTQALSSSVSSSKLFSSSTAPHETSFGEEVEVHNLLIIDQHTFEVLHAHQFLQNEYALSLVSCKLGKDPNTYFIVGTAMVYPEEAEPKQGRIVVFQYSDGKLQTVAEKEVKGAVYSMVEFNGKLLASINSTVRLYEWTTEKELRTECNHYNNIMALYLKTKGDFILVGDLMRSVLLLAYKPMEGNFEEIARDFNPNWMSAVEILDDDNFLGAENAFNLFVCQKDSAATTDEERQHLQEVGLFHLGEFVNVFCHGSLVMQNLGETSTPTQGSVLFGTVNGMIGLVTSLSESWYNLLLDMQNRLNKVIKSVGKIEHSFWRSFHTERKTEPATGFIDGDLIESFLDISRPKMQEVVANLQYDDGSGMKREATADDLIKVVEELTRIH
T1 sequence (P15170 whole entry): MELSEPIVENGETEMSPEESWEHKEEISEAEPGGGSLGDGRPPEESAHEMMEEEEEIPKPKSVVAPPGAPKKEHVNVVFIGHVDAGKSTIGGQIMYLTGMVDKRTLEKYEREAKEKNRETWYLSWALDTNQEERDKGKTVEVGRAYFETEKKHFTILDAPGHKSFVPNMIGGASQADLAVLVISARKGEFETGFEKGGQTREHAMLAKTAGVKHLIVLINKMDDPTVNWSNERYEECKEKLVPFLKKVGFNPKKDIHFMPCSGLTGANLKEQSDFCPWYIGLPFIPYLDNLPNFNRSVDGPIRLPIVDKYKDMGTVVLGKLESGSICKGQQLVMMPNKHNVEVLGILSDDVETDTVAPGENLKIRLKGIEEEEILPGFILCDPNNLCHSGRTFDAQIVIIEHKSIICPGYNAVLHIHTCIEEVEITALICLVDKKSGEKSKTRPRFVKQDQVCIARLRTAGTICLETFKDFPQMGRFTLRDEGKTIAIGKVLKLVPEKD
T1 sequence (Q96SW2 whole entry): as the sequence (Q96SW2 whole entry) above
T1 sequence (Q16531 2-1140 partner limits assumed): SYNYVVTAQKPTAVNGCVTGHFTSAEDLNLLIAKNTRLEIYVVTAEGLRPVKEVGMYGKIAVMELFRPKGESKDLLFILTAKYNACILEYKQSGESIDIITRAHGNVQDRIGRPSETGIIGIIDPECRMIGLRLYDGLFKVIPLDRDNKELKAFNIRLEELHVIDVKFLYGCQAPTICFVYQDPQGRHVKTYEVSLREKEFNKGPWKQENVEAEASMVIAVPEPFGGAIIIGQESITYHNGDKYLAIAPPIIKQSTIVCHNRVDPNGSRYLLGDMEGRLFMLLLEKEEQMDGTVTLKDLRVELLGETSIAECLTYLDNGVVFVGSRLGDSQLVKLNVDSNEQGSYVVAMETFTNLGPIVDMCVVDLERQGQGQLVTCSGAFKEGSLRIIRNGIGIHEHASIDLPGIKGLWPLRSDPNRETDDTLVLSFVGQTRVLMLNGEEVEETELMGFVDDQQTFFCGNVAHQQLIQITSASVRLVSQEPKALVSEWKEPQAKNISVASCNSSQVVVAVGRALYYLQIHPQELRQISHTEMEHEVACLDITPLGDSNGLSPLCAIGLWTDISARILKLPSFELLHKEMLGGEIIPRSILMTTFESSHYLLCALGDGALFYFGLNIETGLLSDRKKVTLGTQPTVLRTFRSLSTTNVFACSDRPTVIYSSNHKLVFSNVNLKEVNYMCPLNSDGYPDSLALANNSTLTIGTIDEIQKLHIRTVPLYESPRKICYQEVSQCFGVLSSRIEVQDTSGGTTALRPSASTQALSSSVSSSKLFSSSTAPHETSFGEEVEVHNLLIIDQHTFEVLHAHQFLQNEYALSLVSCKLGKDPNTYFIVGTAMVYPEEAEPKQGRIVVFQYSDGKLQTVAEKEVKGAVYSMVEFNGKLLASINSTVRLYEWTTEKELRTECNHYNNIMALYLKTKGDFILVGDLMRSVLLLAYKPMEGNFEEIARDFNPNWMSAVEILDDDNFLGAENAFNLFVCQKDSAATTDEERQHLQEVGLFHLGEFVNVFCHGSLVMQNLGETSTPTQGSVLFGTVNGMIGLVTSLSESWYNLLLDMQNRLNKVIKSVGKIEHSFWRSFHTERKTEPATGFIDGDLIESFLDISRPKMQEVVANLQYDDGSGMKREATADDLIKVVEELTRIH

IC50 [1] | DC50 [2] | SMILES
> 1000 nM | 30 to 300 nM | Cc1ccc(NC(=O)OC2CN(c3ccc(C4CCC(=O)NC4=O)c(C#N)c3)C2)cc1Cl (stereo not shown) [Compound 57, 1-(3-cyano-4-(2,6-dioxopiperidin-3-yl)phenyl)azetidin-3-yl(3-chloro-4-methylphenyl)carbamate]
100 to 1000 nM | 30 to 300 nM | CC1(c2ccc(NC(=O)OC3CN(c4cc(F)c(C5CCC(=O)NC5=O)c(F)c4)C3)cc2)CC1 (stereo not shown) [Compound 58, 1-(4-(2,6-dioxopiperidin-3-yl)-3,5-difluorophenyl)azetidin-3-yl (4-(1-methylcyclopropyl)phenyl)carbamate]
> 1000 nM | > 300 nM | COc1c(N2CC(OC(=O)Nc3ccc(C)c(Cl)c3)C2)ccc(C2CCC(=O)NC2=O)c1Cl (stereo not shown) [Compound 59, 1-(3-chloro-4-(2,6-dioxopiperidin-3-yl)-2-methoxyphenyl)azetidin-3-yl (3-chloro-4-methylphenyl)carbamate]
100 to 1000 nM | ≤ 30 nM | CC1(c2ccc(NC(=O)NC3CN(c4cc(F)c(C5CCC(=O)NC5=O)c(F)c4)C3)cc2)CC1 (stereo not shown) [Compound 60, 1-(1-(4-(2,6-dioxopiperidin-3-yl)-3,5-difluorophenyl)azetidin-3-yl)-3-(4-(1-methylcyclopropyl)phenyl)urea]
100 to 1000 nM | ≤ 30 nM | O=C1CCC(c2c(F)cc(N3CC(OC(=O)NC45CC(c6ccccc6)(C4)C5)C3)cc2F)C(=O)N1 (stereo not shown) [Compound 61, 1-(4-(2,6-dioxopiperidin-3-yl)-3,5-difluorophenyl)azetidin-3-yl(3-phenylbicyclo[1.1.1]pentan-1-yl) carbamate]
100 to 1000 nM | > 300 nM | O=C1CCC(c2c(F)cc(N3CC(OC(=O)NC45CC(F)(C4)C5)C3)cc2F)C(=O)N1 (stereo not shown) [Compound 62, 1-(4-(2,6-dioxopiperidin-3-yl)-3,5-difluorophenyl)azetidin-3-yl(3-fluorobicyclo[1.1.1]pentan-1-yl)carbamate]
100 to 1000 nM | > 300 nM | O=C1CCC(c2c(F)cc(N3CC(OC(=O)NC45CC(C4)C5)C3)cc2F)C(=O)N1 (stereo not shown) [Compound 63, 1-(4-(2,6-dioxopiperidin-3-yl)-3,5-difluorophenyl)azetidin-3-yl bicyclo[1.1.1]pentan-1-ylcarbamate]
≤ 100 nM | ≤ 30 nM | Cc1cc(NC(=O)OC2CN(c3cc(F)c(C4CCC(=O)NC4=O)c(F)c3)C2)cc(CN2CC3CC2CO3)c1C (stereo not shown) [Compound 64, 1-(4-(2,6-dioxopiperidin-3-yl)-3,5-difluorophenyl)azetidin-3-yl(3-(2-oxa-5-azabicyclo[2.2.1]heptan-5-ylmethyl)-4,5-dimethylphenyl) carbamate]
≤ 100 nM | ≤ 30 nM | O=C1CCC(c2c(F)cc(N3CC(OC(=O)NC45CC(N6CCCCC6)(C4)C5)C3)cc2F)C(=O)N1 (stereo not shown) [Compound 65, 1-(4-(2,6-dioxopiperidin-3-yl)-3,5-difluorophenyl)azetidin-3-yl (3-(piperidin-1-yl)bicyclo[1.1.1]pentan-1-yl) carbamate]
100 to 1000 nM | 30 to 300 nM | Cc1ccc(NC(=O)NC2CN(c3ccc(C4CCC(=O)NC4=O)cc3)C2)cc1Cl (stereo not shown) [Compound 66, 1-(3-chloro-4-methylphenyl)-3-(1-(4-(2,6-dioxopiperidin-3-yl)phenyl)azetidin-3-yl)urea]
100 to 1000 nM | 30 to 300 nM | Cc1cc(C)cc(NC(=O)NC2CN(c3ccc(C4CCC(=O)NC4=O)cc3)C2)c1 (stereo not shown) [Compound 67, 1-(3,5-dimethylphenyl)-3-(1-(4-(2,6-dioxopiperidin-3-yl)phenyl)azetidin-3-yl)urea]
≤ 100 nM | 30 to 300 nM | O=C1CCC(c2c(F)cc(N3CC(OC(=O)NC45CC(CF)(C4)C5)C3)cc2F)C(=O)N1 (stereo not shown) [Compound 68, 1-(4-(2,6-dioxopiperidin-3-yl)-3,5-difluorophenyl)azetidin-3-yl (3-(fluoromethyl)bicyclo[1.1.1]pentan-1-yl) carbamate]
100 to 1000 nM | ≤ 30 nM | COc1ccc(C(F)(F)C23CC(NC(=O)OC4CN(c5cc(F)c(C6CCC(=O)NC6=O)c(F)c5)C4)(C2)C3)cc1 (stereo not shown) [Compound 69, 1-(4-(2,6-dioxopiperidin-3-yl)-3,5-difluorophenyl)azetidin-3-yl (3-(difluoro(4-methoxyphenyl)methyl)bicyclo[1.1.1]pentan-1-yl)carbamate]

Continued, molecule first:

SMILES | IC50 [1] | DC50 [2]
O=C1CCC(c2ccc(N3CC(NC(=O)Nc4cccc(OC(F)(F)F)c4)C3)cc2Cl)C(=O)N1 (stereo not shown) [Compound 41, 1-(1-(3-chloro-4-(2,6-dioxopiperidin-3-yl)phenyl)azetidin-3-yl)-3-(3-(trifluoromethoxy)phenyl)urea] | 100 to 1000 nM | > 300 nM
Cc1ccc(NC(=O)NC2CN(c3ccc(C4CCC(=O)NC4=O)c(Cl)c3)C2)cc1Cl (stereo not shown) [Compound 42, 1-(1-(3-chloro-4-(2,6-dioxopiperidin-3-yl)phenyl)azetidin-3-yl)-3-(3-chloro-4-methylphenyl)urea] | 100 to 1000 nM | 30 to 300 nM
CC1(c2ccc(NC(=O)OC3CN(c4cc(F)c(C5CCC(=O)NC5=O)c(F)c4)C3)cn2)CC1 (stereo not shown) [Compound 43, 1-(4-(2,6-dioxopiperidin-3-yl)-3,5-difluorophenyl)azetidin-3-yl(6-(1-methylcyclopropyl)pyridin-3-yl) carbamate] | 100 to 1000 nM | ≤ 30 nM
O=C1CCC(c2c(F)cc(N3CC(OC(=O)Nc4cc(F)cc(OC(F)F)c4)C3)cc2F)C(=O)N1 (stereo not shown) [Compound 44, 1-(4-(2,6-dioxopiperidin-3-yl)-3,5-difluorophenyl)azetidin-3-yl (3-(difluoromethoxy)-5-fluorophenyl)carbamate] | 100 to 1000 nM | 30 to 300 nM
O=C1CCC(c2c(F)cc(N3CC(OC(=O)Nc4ccc(-c5ccccn5)cc4)C3)cc2F)C(=O)N1 (stereo not shown) [Compound 45, 1-(4-(2,6-dioxopiperidin-3-yl)-3,5-difluorophenyl)azetidin-3-yl (4-(pyridin-2-yl)phenyl)carbamate] | 100 to 1000 nM | ≤ 30 nM
COc1c(N2CC(OC(=O)Nc3ccc(C)c(Cl)c3)C2)cc(F)c(C2CCC(=O)NC2=O)c1F (stereo not shown) [Compound 46, 1-(4-(2,6-dioxopiperidin-3-yl)-3,5-difluoro-2-methoxyphenyl)azetidin-3-yl (3-chloro-4-methylphenyl) carbamate] | 100 to 1000 nM | 30 to 300 nM
N#Cc1cc(Cl)cc(NC(=O)OC2CN(c3cc(F)c(C4CCC(=O)NC4=O)c(F)c3)C2)c1 (stereo not shown) [Compound 47, 1-(4-(2,6-dioxopiperidin-3-yl)-3,5-difluorophenyl)azetidin-3-yl(3-chloro-5-cyanophenyl)carbamate] | 100 to 1000 nM | 30 to 300 nM
Cc1cc(NC(=O)OC2CN(c3cc(F)c(C4CCC(=O)NC4=O)c(F)c3)C2)cc(C)c1C#N (stereo not shown) [Compound 48, 1-(4-(2,6-dioxopiperidin-3-yl)-3,5-difluorophenyl)azetidin-3-yl (4-cyano-3,5-dimethylphenyl) carbamate] | 100 to 1000 nM | ≤ 30 nM
Cc1cc(C#N)cc(NC(=O)OC2CN(c3cc(F)c(C4CCC(=O)NC4=O)c(F)c3)C2)c1 (stereo not shown) [Compound 49, 1-(4-(2,6-dioxopiperidin-3-yl)-3,5-difluorophenyl)azetidin-3-yl (3-cyano-5-methylphenyl) carbamate] | 100 to 1000 nM | 30 to 300 nM
O=C1CCC(c2c(F)cc(N3CC(NC(=O)Nc4cc(F)cc(OC(F)(F)F)c4)C3)cc2F)C(=O)N1 (stereo not shown) [Compound 50, 1-(1-(4-(2,6-dioxopiperidin-3-yl)-3,5-difluorophenyl)azetidin-3-yl)-3-(3-fluoro-5-(trifluoromethoxy)phenyl)urea] | 100 to 1000 nM | 30 to 300 nM
O=C1CCC(c2c(F)cc(N3CC(OC(=O)Nc4cnc(-c5ccccc5)nc4)C3)cc2F)C(=O)N1 (stereo not shown) [Compound 51, 1-(4-(2,6-dioxopiperidin-3-yl)-3,5-difluorophenyl)azetidin-3-yl(2-phenylpyrimidin-5-yl)carbamate] | 100 to 1000 nM | ≤ 30 nM
Cc1c(Cl)cc(NC(=O)OC2CN(c3cc(F)c(C4CCC(=O)NC4=O)c(F)c3)C2)cc1OCCN1CCOCC1 (stereo not shown) [Compound 52, 1-(4-(2,6-dioxopiperidin-3-yl)-3,5-difluorophenyl)azetidin-3-yl(3-chloro-4-methyl-5-(2-morpholinoethoxy)phenyl)carbamate] | 100 to 1000 nM | ≤ 30 nM
Cc1c(Cl)cc(NC(=O)OC2CN(c3cc(F)c(C4CCC(=O)NC4=O)c(F)c3)C2)cc1C#N (stereo not shown) [Compound 53, 1-(4-(2,6-dioxopiperidin-3-yl)-3,5-difluorophenyl)azetidin-3-yl(3-chloro-5-cyano-4-methylphenyl) carbamate] | 100 to 1000 nM | 30 to 300 nM
Cc1ccc(NC(=O)OC2CN(c3ccc(C4CCC(=O)NC4=O)c(Cl)c3F)C2)cc1Cl (stereo not shown) [Compound 54, 1-(3-chloro-4-(2,6-dioxopiperidin-3-yl)-2-fluorophenyl)azetidin-3-yl(3-chloro-4-methylphenyl)carbamate] | > 1000 nM | 30 to 300 nM
Cc1ccc(NC(=O)OC2CN(c3ccc(C4CCC(=O)NC4=O)cc3)C2)cc1Cl (stereo not shown) [Compound 55, 1-(4-(2,6-dioxopiperidin-3-yl)phenyl)azetidin-3-yl (3-chloro-4-methylphenyl)carbamate] | > 1000 nM | 30 to 300 nM
COc1cc(C2CCC(=O)NC2=O)c(Cl)cc1N1CC(OC(=O)Nc2ccc(C)c(Cl)c2)C1 (stereo not shown) [Compound 56, 1-(5-chloro-4-(2,6-dioxopiperidin-3-yl)-2-methoxyphenyl)azetidin-3-yl (3-chloro-4-methylphenyl)carbamate] | > 1000 nM | 30 to 300 nM
